Source: patent publication US8604023B2, “1,4-benzodiazepinone compounds and their use in treating cancer” (The Regents of the University of Michigan, priority 2009, dated 2013)

Tests used:
HL-60(TB) = test: cancer cell growth inhibition (SRB); format: cell-based, human; conditions: Leukemia
A498 = test: cancer cell growth inhibition (SRB); format: cell-based, human; conditions: Renal Cancer
EKVX = test: cancer cell growth inhibition (SRB); format: cell-based, human; conditions: Non-Small Cell Lung Cancer
NCI-H226 = test: cancer cell growth inhibition (SRB); format: cell-based, human; conditions: Non-Small Cell Lung Cancer
T-47D = test: cancer cell growth inhibition (SRB); format: cell-based, human; conditions: Breast Cancer
SN12C = test: cancer cell growth inhibition (SRB); format: cell-based, human; conditions: Renal Cancer
M14 = test: cancer cell growth inhibition (SRB); format: cell-based, human; conditions: Melanoma
SK-OV-3 = test: cancer cell growth inhibition (SRB); format: cell-based, human; conditions: Ovarian Cancer
SK-MEL-2 = test: cancer cell growth inhibition (SRB); format: cell-based, human; conditions: Melanoma
ACHN = test: cancer cell growth inhibition (SRB); format: cell-based, human; conditions: Renal Cancer
SNB-75 = test: cancer cell growth inhibition (SRB); format: cell-based, human; conditions: CNS Cancer
UACC-257 = test: cancer cell growth inhibition (SRB); format: cell-based, human; conditions: Melanoma
RXF 393 = test: cancer cell growth inhibition (SRB); format: cell-based, human; conditions: Renal Cancer
SF-268 = test: cancer cell growth inhibition (SRB); format: cell-based, human; conditions: CNS Cancer
OVCAR-5 = test: cancer cell growth inhibition (SRB); format: cell-based, human; conditions: Ovarian Cancer
LOXIMVI = test: cancer cell growth inhibition (SRB); format: cell-based, human; conditions: Melanoma
HOP-62 = test: cancer cell growth inhibition (SRB); format: cell-based, human; conditions: Non-Small Cell Lung Cancer
OVCAR-8 = test: cancer cell growth inhibition (SRB); format: cell-based, human; conditions: Ovarian Cancer
COLO 205 = test: cancer cell growth inhibition (SRB); format: cell-based, human; conditions: Colon Cancer
Ramos cells = test: cytotoxicity in Ramos cells; format: cell-based; conditions: Homo sapiens
Procedure: The compounds listed in Table 5 were tested for cytotoxicity in Ramos cells. The assay was conducted as described in K. M. Johnson et al. Chemistry & Biology 2005, 12, 485-496.

HOP-92 = test: cancer cell growth inhibition (SRB); format: cell-based, human; conditions: Non-Small Cell Lung Cancer
OVCAR-3 = test: cancer cell growth inhibition (SRB); format: cell-based, human; conditions: Ovarian Cancer
RPMI-8226 = test: cancer cell growth inhibition (SRB); format: cell-based, human; conditions: Leukemia
NCI-H23 = test: cancer cell growth inhibition (SRB); format: cell-based, human; conditions: Non-Small Cell Lung Cancer
NCI-H460 = test: cancer cell growth inhibition (SRB); format: cell-based, human; conditions: Non-Small Cell Lung Cancer
OVCAR-4 = test: cancer cell growth inhibition (SRB); format: cell-based, human; conditions: Ovarian Cancer
DU-145 = test: cancer cell growth inhibition (SRB); format: cell-based, human; conditions: Prostate Cancer
SF-539 = test: cancer cell growth inhibition (SRB); format: cell-based, human; conditions: CNS Cancer
U251 = test: cancer cell growth inhibition (SRB); format: cell-based, human; conditions: CNS Cancer
HT29 = test: cancer cell growth inhibition (SRB); format: cell-based, human; conditions: Colon Cancer
SW-620 = test: cancer cell growth inhibition (SRB); format: cell-based, human; conditions: Colon Cancer
CAKI-1 = test: cancer cell growth inhibition (SRB); format: cell-based, human; conditions: Renal Cancer
MCF7 = test: cancer cell growth inhibition (SRB); format: cell-based, human; conditions: Breast Cancer
MDA-MB-435 = test: cancer cell growth inhibition (SRB); format: cell-based, human; conditions: Breast Cancer
PC-3 = test: cancer cell growth inhibition (SRB); format: cell-based, human; conditions: Prostate Cancer
SF-295 = test: cancer cell growth inhibition (SRB); format: cell-based, human; conditions: CNS Cancer
A549/ATCC = test: cancer cell growth inhibition (SRB); format: cell-based, human; conditions: Non-Small Cell Lung Cancer
MDA-MB-231/ATCC = test: cancer cell growth inhibition (SRB); format: cell-based, human; conditions: Breast Cancer
NCI-H322M = test: cancer cell growth inhibition (SRB); format: cell-based, human; conditions: Non-Small Cell Lung Cancer
CCRF-CEM = test: cancer cell growth inhibition (SRB); format: cell-based, human; conditions: Leukemia
BT-549 = test: cancer cell growth inhibition (SRB); format: cell-based, human; conditions: Breast Cancer
SK-MEL-5 = test: cancer cell growth inhibition (SRB); format: cell-based, human; conditions: Melanoma
SNB-19 = test: cancer cell growth inhibition (SRB); format: cell-based, human; conditions: CNS Cancer
MOLT-4 = test: cancer cell growth inhibition (SRB); format: cell-based, human; conditions: Leukemia
IGROV1 = test: cancer cell growth inhibition (SRB); format: cell-based, human; conditions: Ovarian Cancer
KM12 = test: cancer cell growth inhibition (SRB); format: cell-based, human; conditions: Colon Cancer
TK-10 = test: cancer cell growth inhibition (SRB); format: cell-based, human; conditions: Renal Cancer
NCI-H522 = test: cancer cell growth inhibition (SRB); format: cell-based, human; conditions: Non-Small Cell Lung Cancer
786-0 = test: cancer cell growth inhibition (SRB); format: cell-based, human; conditions: Renal Cancer
SR = test: cancer cell growth inhibition (SRB); format: cell-based, human; conditions: Leukemia
SK-MEL-28 = test: cancer cell growth inhibition (SRB); format: cell-based, human; conditions: Melanoma
NCI/ADR-RES = test: cancer cell growth inhibition (SRB); format: cell-based, human; conditions: Breast Cancer
HCT-15 = test: cancer cell growth inhibition (SRB); format: cell-based, human; conditions: Colon Cancer

CN1C(=O)C(Cc2ccc3ccccc3c2)N=C(c2cn[nH]c2)c2cc(Cl)ccc21 (centres unmarked) [Compound V-38]
growth inhibition of the cancer cells (HL-60(TB)): + (less than 40% growth inhibition of the cancer cells) | growth inhibition of the cancer cells (A498): +++ (at least 75% growth inhibition of the cancer cells) | growth inhibition of the cancer cells (EKVX): ++ (40%-75% growth inhibition of the cancer cells) | growth inhibition of the cancer cells (NCI-H226): ++ (40%-75% growth inhibition of the cancer cells) | growth inhibition of the cancer cells (T-47D): + (less than 40% growth inhibition of the cancer cells) | growth inhibition of the cancer cells (SN12C): ++ (40%-75% growth inhibition of the cancer cells) | growth inhibition of the cancer cells (M14): +++ (at least 75% growth inhibition of the cancer cells) | growth inhibition of the cancer cells (SK-OV-3): + (less than 40% growth inhibition of the cancer cells) | growth inhibition of the cancer cells (SK-MEL-2): ++ (40%-75% growth inhibition of the cancer cells) | growth inhibition of the cancer cells (ACHN): +++ (at least 75% growth inhibition of the cancer cells) | growth inhibition of the cancer cells (SNB-75): +++ (at least 75% growth inhibition of the cancer cells) | growth inhibition of the cancer cells (UACC-257): +++ (at least 75% growth inhibition of the cancer cells) | growth inhibition of the cancer cells (RXF 393): +++ (at least 75% growth inhibition of the cancer cells) | growth inhibition of the cancer cells (SF-268): +++ (at least 75% growth inhibition of the cancer cells) | growth inhibition of the cancer cells (OVCAR-5): + (less than 40% growth inhibition of the cancer cells) | growth inhibition of the cancer cells (LOXIMVI): +++ (at least 75% growth inhibition of the cancer cells) | growth inhibition of the cancer cells (HOP-62): +++ (at least 75% growth inhibition of the cancer cells) | growth inhibition of the cancer cells (OVCAR-8): + (less than 40% growth inhibition of the cancer cells) | growth inhibition of the cancer cells (COLO 205): ++ (40%-75% growth inhibition of the cancer cells) | EC50 (Ramos cells): ≤ 5 µM | growth inhibition of the cancer cells (HOP-92): ++ (40%-75% growth inhibition of the cancer cells) | growth inhibition of the cancer cells (OVCAR-3): +++ (at least 75% growth inhibition of the cancer cells) | growth inhibition of the cancer cells (RPMI-8226): + (less than 40% growth inhibition of the cancer cells) | growth inhibition of the cancer cells (NCI-H23): +++ (at least 75% growth inhibition of the cancer cells) | growth inhibition of the cancer cells (NCI-H460): ++ (40%-75% growth inhibition of the cancer cells) | growth inhibition of the cancer cells (OVCAR-4): ++ (40%-75% growth inhibition of the cancer cells) | growth inhibition of the cancer cells (DU-145): +++ (at least 75% growth inhibition of the cancer cells) | growth inhibition of the cancer cells (SF-539): +++ (at least 75% growth inhibition of the cancer cells) | growth inhibition of the cancer cells (U251): +++ (at least 75% growth inhibition of the cancer cells) | growth inhibition of the cancer cells (HT29): + (less than 40% growth inhibition of the cancer cells) | growth inhibition of the cancer cells (SW-620): +++ (at least 75% growth inhibition of the cancer cells) | growth inhibition of the cancer cells (CAKI-1): + (less than 40% growth inhibition of the cancer cells) | growth inhibition of the cancer cells (MCF7): ++ (40%-75% growth inhibition of the cancer cells) | growth inhibition of the cancer cells (MDA-MB-435): + (less than 40% growth inhibition of the cancer cells) | growth inhibition of the cancer cells (PC-3): + (less than 40% growth inhibition of the cancer cells) | growth inhibition of the cancer cells (SF-295): + (less than 40% growth inhibition of the cancer cells) | growth inhibition of the cancer cells (A549/ATCC): ++ (40%-75% growth inhibition of the cancer cells) | growth inhibition of the cancer cells (MDA-MB-231/ATCC): + (less than 40% growth inhibition of the cancer cells) | growth inhibition of the cancer cells (NCI-H322M): + (less than 40% growth inhibition of the cancer cells) | growth inhibition of the cancer cells (CCRF-CEM): + (less than 40% growth inhibition of the cancer cells) | growth inhibition of the cancer cells (BT-549): +++ (at least 75% growth inhibition of the cancer cells) | growth inhibition of the cancer cells (SK-MEL-5): +++ (at least 75% growth inhibition of the cancer cells) | growth inhibition of the cancer cells (SNB-19): ++ (40%-75% growth inhibition of the cancer cells) | growth inhibition of the cancer cells (MOLT-4): + (less than 40% growth inhibition of the cancer cells) | growth inhibition of the cancer cells (IGROV1): +++ (at least 75% growth inhibition of the cancer cells) | growth inhibition of the cancer cells (KM12): +++ (at least 75% growth inhibition of the cancer cells) | growth inhibition of the cancer cells (TK-10): +++ (at least 75% growth inhibition of the cancer cells) | growth inhibition of the cancer cells (NCI-H522): ++ (40%-75% growth inhibition of the cancer cells) | growth inhibition of the cancer cells (786-0): +++ (at least 75% growth inhibition of the cancer cells) | growth inhibition of the cancer cells (SR): − (an apparent increase in cancer cell growth upon administration of the test compound) | growth inhibition of the cancer cells (SK-MEL-28): +++ (at least 75% growth inhibition of the cancer cells) | growth inhibition of the cancer cells (NCI/ADR-RES): + (less than 40% growth inhibition of the cancer cells) | growth inhibition of the cancer cells (HCT-15): ++ (40%-75% growth inhibition of the cancer cells)
